Source: the supplement of paper PMC11061612

Columns and labels:
Experiment in all cases: combination Emax (second highest fraction inhibited in the dose matrix, 72 h); higher = more inhibition; extreme values may be limits of the assay
[1] = tested on: SK-MES-1 (Squamous Cell Lung Carcinoma)
How it was run: (§1)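 Bliss excess equals the observed combination effect minus the expected value EA + EB − EA·EB, where EA and EB are the effects of each agent alone. Combination Emax is the second-highest inhibition within the matrix. Inhibition was scaled from CellTiter-Glo 2.0 luminescence, with 0 set by vehicle wells and 1 by blank wells, after 72 hours of two-drug dosing of cells plated in 1536-well plates.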

[2] = tested on: NCI-H1666 (Lung Adenocarcinoma)
How it was run: as §1

[3] = tested on: JSC-1 (B-Cell Non-Hodgkin's Lymphoma)
How it was run: as §1

[4] = tested on: NCI-H2141 (Small Cell Lung Carcinoma)
How it was run: as §1

[5] = tested on: TT2609-C02 (Thyroid Gland Carcinoma)
How it was run: as §1

[6] = tested on: A549 (Lung Adenocarcinoma)
How it was run: as §1

[7] = tested on: ONS-76 (Other Solid Carcinomas)
How it was run: as §1

[8] = tested on: U-2-OS (Osteosarcoma)
How it was run: as §1

[9] = tested on: ARH-77 (Non-Cancerous)
How it was run: as §1

[10] = tested on: PANC-10-05 (Pancreatic Carcinoma)
How it was run: as §1

[11] = tested on: NY (Osteosarcoma)
How it was run: as §1

[12] = tested on: NCI-H64 (Small Cell Lung Carcinoma)
How it was run: as §1

[13] = tested on: GI-ME-N (Neuroblastoma)
How it was run: as §1

[14] = tested on: OS-RC-2 (Kidney Carcinoma)
How it was run: as §1

[15] = tested on: ECC10 (Gastric Carcinoma)
How it was run: as §1

[16] = tested on: NCI-H2591 (Mesothelioma)
How it was run: as §1

[17] = tested on: BICR22 (Oral Cavity Carcinoma)
How it was run: as §1

[18] = tested on: SK-MG-1 (Low Grade Glioma)
How it was run: as §1

[19] = tested on: NCI-H1650 (Lung Adenocarcinoma)
How it was run: as §1

[20] = tested on: 8-MG-BA (Glioblastoma)
How it was run: as §1

Structure (SMILES) | combination Emax [1] | combination Emax [2] | combination Emax [3] | combination Emax [4] | combination Emax [5] | combination Emax [6] | combination Emax [7] | combination Emax [8] | combination Emax [9] | combination Emax [10] | combination Emax [11] | combination Emax [12] | combination Emax [13] | combination Emax [14] | combination Emax [15] | combination Emax [16] | combination Emax [17] | combination Emax [18] | combination Emax [19] | combination Emax [20]
Cc1c2c(nn1C)CSCc1cc(n(C)n1)CSc1cc(c3ccccc3c1)OCCCc1c(C(=O)O)n(C)c3c-2c(Cl)ccc13 [AZD5991] + CN(C)CCCOc1ccc(-c2ccc3ncc4c(c3c2)n(C2CCOCC2)c(=O)n4C)cn1 [AZD0156] (first compound max 1 µM, 7x7, partner max 1 µM) | 0.196 | 0.238 | 1 | 0.265 | 0.212 | 0.323 | 0.239 | 0.263 | 0.867 | 0.334 | 0.399 | 0.346 | 0.307 | 0.25 | 0.66 | 0.185 | 0.323 | 0.539 | 0.2 | 0.586
CC1(C)CCC(CN2CCN(c3ccc(C(=O)NS(=O)(=O)c4ccc(NCC5CCOCC5)c([N+](=O)[O-])c4)c(Oc4cnc5[nH]ccc5c4)c3)CC2)=C(c2ccc(Cl)cc2)C1 [Venetoclax] + CCN(CCO)CCCOc1ccc2c(Nc3cc(CC(=O)Nc4cccc(F)c4)[nH]n3)ncnc2c1 [AZD2811] (first compound max 1 µM, 7x7, partner max 1 µM) | 0.223 | 0.265 | 0.332 | 0.482 | 0.418 | 0.461 | 0.698 | 0.257 | 0.703 | 0.288 | 0.616 | 0.792 | 0.186 | 0.232 | 1 | 0.196 | 0.492 | 0.464 | 0.207 | 0.245
COc1cccc(OCCCN)c1-c1cc(Nc2cnc(C#N)cn2)n[nH]1 [Prexasertib] + CCc1c2c(nc3ccc(O)cc13)-c1cc3c(c(=O)n1C2)COC(=O)[C@]3(O)CC [SN-38] (first compound max 1 µM, 7x7, partner max 0.3 µM) | 0.953 | 0.643 | 0.987 | 0.881 | 0.95 | 0.796 | 0.867 | 0.871 | 1 | 0.829 | 0.935 | 0.95 | 0.529 | 0.431 | 1 | 0.791 | 0.936 | 0.982 | 0.778 | 0.989
Cc1c2c(nn1C)CSCc1cc(n(C)n1)CSc1cc(c3ccccc3c1)OCCCc1c(C(=O)O)n(C)c3c-2c(Cl)ccc13 [AZD5991] + C[C@@H](Nc1cc(F)cc(F)c1)c1cc(C(=O)N(C)C)cc2c(=O)cc(N3CCOCC3)oc12 [AZD8186] (first compound max 1 µM, 7x7, partner max 3 µM) | 0.381 | 0.386 | 1 | 0.3 | 0.303 | 0.476 | 0.244 | 0.238 | 0.928 | 0.311 | 0.631 | 0.406 | 0.301 | 0.471 | 0.721 | 0.196 | 0.537 | 0.648 | 0.297 | 0.734
CCN(CCO)CCCOc1ccc2c(Nc3cc(CC(=O)Nc4cccc(F)c4)[nH]n3)ncnc2c1 [AZD2811] + O=C(c1cc(Cc2n[nH]c(=O)c3ccccc23)ccc1F)N1CCN(C(=O)C2CC2)CC1 [Olaparib] (first compound max 1 µM, 7x7, partner max 10 µM) | 0.271 | 0.284 | 0.213 | 0.307 | 0.299 | 0.58 | 0.398 | 0.219 | 0.474 | 0.181 | 0.169 | 0.434 | 0.196 | 0.178 | 0.835 | 0.182 | 0.362 | 0.405 | 0.249 | 0.52
COc1cc2c(cc1OCCCCCOc1cc3c(cc1OC)C(=O)N1C=C(C)C[C@H]1C=N3)N=C[C@@H]1CC(C)=CN1C2=O [SG3199] + O=C(c1cc(Cc2n[nH]c(=O)c3ccccc23)ccc1F)N1CCN(C(=O)C2CC2)CC1 [Olaparib] (first compound max 0.001 µM, 7x7, partner max 10 µM) | 0.103 | 0.0849 | 0.116 | 0.197 | 0.166 | 0.234 | 0.206 | 0.0914 | 0.221 | 0.116 | 0.0994 | 0.0693 | 0.161 | 0.0448 | 0.102 | 0.118 | 0.124 | 0.168 | 0.0953 | 0.267
COc1cccc(OCCCN)c1-c1cc(Nc2cnc(C#N)cn2)n[nH]1 [Prexasertib] + CN(C)CCCOc1ccc(-c2ccc3ncc4c(c3c2)n(C2CCOCC2)c(=O)n4C)cn1 [AZD0156] (first compound max 1 µM, 7x7, partner max 1 µM) | 0.77 | 0.35 | 1 | 0.568 | 0.335 | 0.536 | 0.862 | 0.943 | 1 | 0.4 | 0.62 | 0.787 | 0.529 | 0.498 | 0.671 | 0.305 | 0.742 | 0.843 | 0.51 | 0.934
CCc1c2c(nc3ccc(O)cc13)-c1cc3c(c(=O)n1C2)COC(=O)[C@]3(O)CC [SN-38] + O=C(c1cc(Cc2n[nH]c(=O)c3ccccc23)ccc1F)N1CCN(C(=O)C2CC2)CC1 [Olaparib] (first compound max 0.3 µM, 7x7, partner max 10 µM) | – | 0.532 | 0.973 | 0.423 | – | 0.817 | 0.829 | 0.205 | 0.997 | 0.76 | 0.91 | 0.396 | 0.494 | – | 1 | 0.575 | 0.95 | 0.821 | 0.575 | 0.986
Cc1c2c(nn1C)CSCc1cc(n(C)n1)CSc1cc(c3ccccc3c1)OCCCc1c(C(=O)O)n(C)c3c-2c(Cl)ccc13 [AZD5991] + Cn1cnc2c(F)c(Nc3ccc(Br)cc3Cl)c(C(=O)NOCCO)cc21 [Selumetinib] (first compound max 1 µM, 7x7, partner max 3 µM) | 0.435 | 0.736 | 1 | 0.22 | 0.569 | 0.64 | 0.631 | 0.331 | – | 0.442 | 0.416 | 0.295 | 0.421 | 0.238 | 0.669 | 0.27 | 0.959 | 0.339 | 0.16 | 0.739
C=CCn1c(=O)c2cnc(Nc3ccc(N4CCN(C)CC4)cc3)nc2n1-c1cccc(C(C)(C)O)n1 [AZD1775] + C[C@@H]1COCCN1C2=NC(=NC(=C2)C3(CC3)[S@](=N)(=O)C)C4=C5C=CNC5=NC=C4 [AZD6738] (first compound max 1 µM, partner max 10 µM) | 0.695 | 0.49 | 0.905 | 0.675 | 0.393 | 0.829 | 0.942 | 0.852 | 1 | 0.513 | 0.665 | 0.936 | 0.548 | 0.453 | 0.843 | 0.389 | 0.799 | 0.702 | 0.53 | –
CC(=O)c1c(C)c2cnc(Nc3ccc(N4CCNCC4)cn3)nc2n(C2CCCC2)c1=O [Palbociclib] + CN(CC[C@H](CSC1=CC=CC=C1)NC2=C(C=C(C=C2)S(=O)(=O)NC(=O)C3=CC=C(C=C3)N4CCC(CC4)[C@H](C5=CC=CC=C5C6=CC=C(C=C6)Cl)O)S(=O)(=O)C(F)(F)F)CCO [AZD4320] (first compound max 10 µM, 7x7, partner max 1 µM) | 0.289 | – | 0.59 | 0.883 | 0.29 | 0.723 | – | 0.355 | 0.899 | – | – | – | 0.211 | 0.365 | – | 0.249 | – | 0.563 | 0.184 | 0.337
C[C@@H](c1ccc2nccn2c1)n1nnc2ncc(-c3cnn(C)c3)nc21 [Savolitinib] + CN(CC[C@H](CSC1=CC=CC=C1)NC2=C(C=C(C=C2)S(=O)(=O)NC(=O)C3=CC=C(C=C3)N4CCC(CC4)[C@H](C5=CC=CC=C5C6=CC=C(C=C6)Cl)O)S(=O)(=O)C(F)(F)F)CCO [AZD4320] (first compound max 1 µM, 7x7, partner max 1 µM) | 0.18 | – | 0.117 | 0.744 | 0.174 | 0.165 | – | 0.385 | 0.82 | – | – | – | 0.229 | 0.324 | – | 0.15 | – | 0.152 | 0.182 | 0.116
COc1nnc2ccc(N3CCC(c4ccc(OCCN5CCN(C)C(=O)[C@H]5C)cc4)CC3)nn12 [AZD5153] + CN(CC[C@H](CSC1=CC=CC=C1)NC2=C(C=C(C=C2)S(=O)(=O)NC(=O)C3=CC=C(C=C3)N4CCC(CC4)[C@H](C5=CC=CC=C5C6=CC=C(C=C6)Cl)O)S(=O)(=O)C(F)(F)F)CCO [AZD4320] (first compound max 1 µM, 7x7, partner max 1 µM) | 0.631 | – | 0.71 | 0.941 | 0.424 | 0.735 | – | 0.319 | 0.965 | – | – | – | 0.246 | 0.292 | – | 0.395 | – | 0.566 | 0.419 | 0.772
